Entries after “also recorded” stand apart in the source; their conditions may differ. Where two headings read alike, the source gives them in different places.
Tests used:
[1] = cited from earlier work
[2] = system: intra-cranially implanted L1210 leukemia; conditions: cited from earlier work
human U251 glioma = conditions: 10 mg/kg q2d×11 or 20 mg/kg q4d×6 IP; tumors staged to ~300 mg; cited from earlier work
L1210 leukemia [3] = experiment: In vitro cytotoxicity of VNP40101M and AraC, cell viability assay (mitochondrial oxidoreductase activity); format: cell-based, murine; conditions: AraC and VNP40101M 0.75-6 uM
Experimental: The cytotoxicity of the combination of VNP40101M and Arac on L1210 leukemia was examined using a cell viability assay. Cells were exposed to VNP40101M, alone or in combination with various concentrations of AraC. After 72 hours, the remaining viable cells were quantified by measuring mitochondrial oxidoreductase activity. Concentrations of AraC and VNP40101M used were between 0.75 and 6 uM. Dose-effect analyses (combination index) showing combination effects of VNP40101M and AraC were analyzed.

[4] = system: human HTB177 lung (H460) carcinoma; conditions: weekly IP, 10-60 mg/kg; cited from earlier work
[5] = cited from earlier work; remark: listed apart in the source
[6] = system: human WiDr colon carcinoma; conditions: weekly IP, 10-60 mg/kg; cited from earlier work
L1210 leukemia [7] = experiment: In vivo antitumor activity of VNP40101M and AraC on ip L1210 leukemia (1×10^6 cells), survival; set-up: species or system CD2F1 mice; conditions: 1×10^6 L1210 cells ip; for Long-term Survivors (%): survival more than 60 days
Experimental: Eighty Female Balb/c×DBA/2 (CD2F1) mice were inoculated intraperitoneally (ip) on day 0 with 1×10^6 L1210 cells in 0.2 mL phosphate-buffered-saline (PBS). The mice were randomly divided into 6 groups; each group consisted of 10 mice. The animals were untreated or treated with a single bolus dose of VNP40101M at 5, or 10 mg/kg, ip, on day 1 with or without AraC (50 mg/kg, ip) on days 1, 3, 5, 7, and 9. Daring the experiments, mice were observed daily for survival. It was determined that mice that survive for more than 60 days after inoculation of L1210 cells might be regarded as long-term survivors. Kaplan-Meier plots were generated, and survival time of animals was analyzed using student T-test. Significance was defined as P<0.05.

L1210 leukemia [8] = experiment: In vivo antitumor activity of VNP40101M and fludarabine on ip L1210 leukemia (3×10^6 cells), survival; set-up: species or system CD2F1 mice; conditions: 3×10^6 L1210 cells ip; for Long-term Survivors (%): survival more than 60 days
Experimental: Eighty Female Balb/c×DBA/2 (CD2F1) mice are inoculated intraperitoneally (ip) on day 0 with 3×10^6 L1210 cells in 0.2 mL phosphate-buffered-saline (PBS). The mice are randomly divided into 6 groups; each group consists of 10 mice. The animals are untreated or treated with a single bolus dose of VNP40101M at 5, or 10 mg/kg, ip, on day 1 with or without fludarabine (70 mg/kg, ip) on multiple days between days 1 to 9. During the experiments, mice are observed daily for survival. It is determined that mice that survive for more than 60 days after inoculation of L1210 cells might be regarded as long-term survivors. Kaplan-Meier plots are generated, and survival time of animals is analyzed using student T-test. Significance is defined as P<0.05.

[9] = system: L1210 leukemia (10^6 tumor cells) resistant to BCNU, cyclophosphamide, or melphalan; conditions: cited from earlier work
[10] = cited from earlier work; remark: listed apart in the source
[11] = system: advanced hematologic malignancies; conditions: cited from earlier work
[12] = system: murine M109 lung carcinoma; conditions: cited from earlier work
B16F10 melanoma = conditions: weekly IP, 10-60 mg/kg; cited from earlier work
[13] = cited from earlier work; remark: listed apart in the source
[14] = VNP40101M 5 mg/kg ip single bolus day 1
[15] = VNP40101M 10 mg/kg ip single bolus day 1
[16] = single dose 80-100 mg/kg IP, tumor-bearing mice

For `CNC(=O)N(N(CCCl)S(C)(=O)=O)S(C)(=O)=O` [VNP40101M, 1,2-Bis(methylsulfonyl)-1-(2-chloroethyl)-2-(methylaminocarbonyl) hydrazine], the Dose-limiting non-hematologic toxicities ([1]; 3-305 mg/m^2) is listed as “No dose-limiting non-hematologic toxicities were observed”, the “Maximum tolerated dose (MTD)” value ([1]; IV infusion over 15-30 minutes every 4-6 weeks) is listed as 305 mg/m^2 and the Platelet nadir ([1]; MTD 305 mg/m^2) is listed as 25 to 33 days. For the same molecule, the “Patients with grade 3 thrombocytopenia” value ([1]; among seven patients treated at the MTD (305 mg/m^2)) was “six”, the “Recovery of hematologic toxicities to ≦ grade 1” value ([1]; human, in vivo) was 32-45 days and the “Patients with ≧grade 2 granulocytopenia” value ([1]; patients treated at the MTD (305 mg/m^2)) was “Five”. The “Anti-tumor activity against intra-cranially implanted L1210 leukemia” value ([2]; IP administration) was “Substantial anti-tumor activity”, the “Crossing the blood brain barrier” value ([2]; inferred from activity against intra-cranially implanted leukemia) was “good penetration through the blood-brain barrier; also recorded: effective in crossing the blood brain barrier” and the “Cell kill of leukemia cells implanted intracranially” value ([2]; leukemia cells implanted intracranially) was over 6.54 log cell kill. The Tumor response (human U251 glioma) was “complete regressions”, the “Combination effect with AraC on L1210 leukemia” value (L1210 leukemia [3]) was “worked synergistically with AraC” and the Tumor growth [4] was “significant delays in tumor growth”. For the same molecule, the “Clinical signs and symptoms” value ([5]; 1 mg/kg (20 mg/m^2) IV d×5) was “minimal clinical signs and symptoms”, the Leukopenia ([5]; 1 mg/kg IV d×5, recovered to baseline by day 15) was “mild leukopenia on day 8” and the Leukopenia ([5]; 3 mg/kg IV d×5) was “marked leukopenia by day 8”. For the same molecule, the Clinical signs ([5]; 3 mg/kg IV d×5, sacrifice on day 8) was “marked clinical signs”, the Tolerability ([5]; single IV doses 1 and 3 mg/kg, at least 21 days of observation) was “well-tolerated” and the Clinical signs ([5]; single IV doses 10 and 30 mg/kg (200 and 600 mg/m^2)) was “marked clinical signs”. The Tumor growth [6] was “significant delays in tumor growth”, the “Long-term Survivors (%)” value (L1210 leukemia [7]; [14]) was 50% and the “Long-term Survivors (%)” value (L1210 leukemia [7]; [15]) was 90%. The “Long-term Survivors (%)” value (L1210 leukemia [8]; [14]) was 0%, the “Long-term Survivors (%)” value (L1210 leukemia [8]; [15]) was 40% and the “Increase in life span compared to control mice” value ([9]; 6 mg/kg/d IP daily for 6 days (total dose 36 mg/kg)) was 333%. For the same molecule, the Cure ([9]; 12-18 mg/kg/d IP daily for 6 days (total doses 72-108 mg/kg)) was 100 % of animals, the Delayed toxic deaths ([9]; d×6 schedule, total doses up to 108 mg/kg) was “not observed” and the “Myelosuppression at doses producing long-term survival” value ([9]; non-tumor-bearing mice) was “only modestly myelosuppressive”. The “Time of toxic deaths after treatment” value [9, 16] was over 50 days, the “Toxicity of higher single doses” value [9, 16] was “signs of a wasting condition and death in some animals; also recorded: signs of a wasting condition and deaths” and the “Cure (survival ≧60 days)” value ([9]; single dose IP 24 hours after tumor inoculation, 20-60 mg/kg (60-180 mg/m^2)) was 100 % of mice. The “Clinical signs or symptoms” value ([10]; 3 mg/kg (18 mg/m^2) IV d×5, day 15) was “no clinical signs or symptoms”, the “Rats with lung findings” value ([10]; 3 mg/kg IV d×5, day 29) was 2/10 and the “Microscopic findings (lung)” value ([10]; 3 mg/kg IV d×5) was “alveolar edema, congestion, alveolar histiocytosis, and vascular thrombi”. For the same molecule, the Gross necropsy findings ([10]; 10 mg/kg (60 mg/m^2) d×5, day 15) was “few significant gross necropsy findings”, the “Effects on serum chemistries” value ([10]; 10 mg/kg dose group, day 29) was “decreases in total protein and albumin” and the “Animals with thoracic cavity fluid” value ([10]; 10 mg/kg d×5, sacrificed on day 29) was “approximately 50 % of animals”. For the same molecule, the “Animals with thoracic cavity fluid” value ([10]; 10 mg/kg d×5, sacrificed on days 30/31) was 6/6, the Myelosuppression ([10]; doses as high as 10 mg/kg d×5) was “not observed” and the Clinical response ([11]; 220 mg/m^2, heavily pre-treated patient with AML) was “substantial clearing of marrow blasts”. For the same molecule, the Clinical response ([11]; 300 mg/m^2 single course, one previously untreated patient with high-risk myelodysplasia) was “complete response by day 28”, the Clinical response ([11]; 532 mg/M^2, patient with AML, by day 28) was “reduction in marrow blasts” and the “Duration of prolonged marrow aplasia” value ([11]; 708 mg/m^2, one of seven patients) was over 80 days. For the same molecule, the Peripheral blood blasts ([11]; all dose levels (220-708 mg/m^2)) was “reduced peripheral blood blasts at least transiently in most patients”, the Infusion-related reaction ([11]; doses ≧400 mg/m2) was “transient infusion-related syndrome” and the Dose-limiting non-hematologic toxicities ([11]; through the dose of 708 mg/m^2) was “no dose-limiting non-hematologic toxicities were observed”. For the same molecule, the Tumor growth ([12]; 10 mg/kg q2d×10 or 20 mg/kg q4d×5 IP, tumors staged to ~150 mg) was “delayed tumor growth”, the “Delay of time to reach 1 gram” value ([12]; 20 mg/kg q4d×5 IP) was 14 days and the Tumor growth (B16F10 melanoma) was “significant delays in tumor growth”. The “White blood cell count” value ([13]; 60 mg/kg, by day 4) was “approximately 25 % of baseline”, the “White blood cell count” value ([13]; 80 mg/kg, by day 4) was ~15 % of baseline and the WBC recovery ([13]; 60-80 mg/kg) was “full recovery by day 21”. The “White blood cell count” value ([13]; single IP dose 40 mg/kg (120 mg/m^2)) was 50 % of baseline.
With `Nc1ccn([C@@H]2O[C@H](CO)[C@@H](O)[C@@H]2O)c(=O)n1` [AraC, Cytarabine, reference compound] the “Long-term Survivors (%)” value (L1210 leukemia [7]; AraC 50 mg/kg ip days 1, 3, 5, 7, 9) was 0% and the “Time to death of all animals” value (L1210 leukemia [7]; AraC treatment control, 50 mg/kg ip days 1, 3, 5, 7, 9) was at most 30 days.
In the case of `Nc1nc(F)nc2c1ncn2[C@@H]1O[C@H](CO)[C@@H](O)[C@@H]1O` [Fluda, Fludarabine, reference compound], the “Long-term Survivors (%)” value (L1210 leukemia [8]; fludarabine 70 mg/kg ip multiple days between days 1 to 9) is reported as 0% and the “Time to death of all animals” value (L1210 leukemia [8]; fludarabine treatment control, 70 mg/kg ip) is reported as at most 30 days.

— US7605137B2, “Combination therapy comprising cloretazine” (priority 2004, dated 2009)
